Consider seven molecules from patent US11266655B2, “Methods and compositions for treating urea cycle disorders” (Camp4 Therapeutics Corporation, priority 2019, dated 2022).

One data set relates to ASS1. Description: RNA-seq of compound-treated primary human hepatocytes, ASS1 expression. The format is cell-based.
The test system of the next data set is NAGS. It is filed as cell-based, human.
For another data set, the system named is LXR. Conditions: cited from earlier work.
For the next data set, the target named is mTOR (Homo sapiens, UniProt P42345). Conditions: cited from earlier work.
A further data set has as its system Bcr-Abl (wildtype). The following applies: cited from earlier work.
The subject of another data set is Bcr-Abl (T315I). The following applies: cited from earlier work.
The subject of a further data set is CPS1. Description: RNA-seq of compound-treated primary human hepatocytes, CPS1 expression. The format is cell-based. The following applies: primary human hepatocytes, RNA-seq.
The test system of data set [1] is OTC. Description: RNA-seq of compound-treated primary human hepatocytes, OTC expression. Conditions: primary human hepatocytes, RNA-seq. It is filed as cell-based.
In a further data set the test system is ARG1. Description: RNA-seq of compound-treated primary human hepatocytes, ARG1 expression. It is filed as cell-based. Conditions: primary human hepatocytes, RNA-seq (Table 7).
In the next data set the test system is SLC25A15. Description: RNA-seq of compound-treated primary human hepatocytes, SLC25A15 expression. The format is cell-based. Conditions: primary human hepatocytes, RNA-seq (Table 8).
In a further data set the test system is urea cycle genes. Description: RNA-seq of primary human hepatocytes, compounds that modulate multiple urea cycle-related genes. The format is cell-based. The following applies: primary human hepatocytes, RNA-seq.
Data set [2] has as its system OTC. The data set is described as follows: siRNA SMARTpool transfection of primary human hepatocytes, OTC qPCR (Table 3B). The format is cell-based. The following applies: siRNA 10 nM, 48 hrs, vs non-targeting siRNA. How it is done: Primary human hepatocytes were reversed transfected with 6 pmol siRNA using RNAiMAX Reagent (ThermoFisher Cat No13778030) in 24 well format, 1 ul per well (for a final cone of 10 nM). The following morning, the medium was removed and replaced with Modified Maintenance Medium (see above) for an additional 24 hrs. The entire treatment lasted 48 hrs, at which point the medium was removed and replaced with RLT Buffer for RNA extraction (Qiagen RNeasy 96 QIAcube HT Kit Cat #74171). siRNAs were obtained from Dharmacon and are a pool of four siRNA duplex all designed to target distinct sites within the specific gene of interest (known as “SMARTpool”). They were tested against the control non-targeting siRNA D-001206-13-05.
Isolated RNA was processed for cDNA synthesis and qPCR as described above. Taqman assay used for OTC measurement: Hs00166892_ml
On the technique in general: Quantitative PCR measures a nucleic acid by following its amplification.

Data set [3] deals with OTC. The data set is described as follows: Hepatocytes incubated with increasing concentrations of IFN-γ, OTC gene expression. It is filed as cell-based, human. How it is done: To further assess the link between JAK1 and the urea cycle genes, hepatocytes were incubated with increasing concentrations of interferon (IFN)-γ, a known JAK1 activator. The cells were harvested for mRNA collection and OTC gene expression was determined as previously described.

Read-outs that look alike come from different tables or passages of the source.

Procedure for urea cycle genes: To identify small molecules that modulate urea cycle enzymes, primary human hepatocytes were prepared as a monoculture, and at least one small molecule compound was applied to the cells.
RNA-seq was performed to determine the effects of the compounds on the expression of urea cycle enzymes in hepatocytes. Fold change was calculated by dividing the level of expression in the cell system that had been perturbed by the level of expression in an unperturbed system. Changes in expression having a p-value ≤0.05 were considered significant.
Significance was defined as an FPKM ≥1, a log 2 (fold change) ≥0.5, and a q-value of ≤0.05 for selected gene target.

Usually EC50 stands for the concentration at which the effect is half-maximal. Consider `O=S(=O)(c1ccccc1)N(CC(F)(F)F)c1ccc(C(O)(C(F)(F)F)C(F)(F)F)cc1` [T0901317], for which the “Fold change (Log 2) vs untreated, ASS1 expression” value with ASS1 was […]. Further, the “Fold change (Log 2) vs untreated, NAGS expression” value in the data set with NAGS turned out to be […]. The EC50 in the data set on LXR was […].
The term IC50 denotes the concentration at which inhibition is half-maximal. As to `CNC(=O)Nc1ccc(-c2nc(N3CC4CCC(C3)O4)c3cnn(C4CCC5(CC4)OCCO5)c3n2)cc1` [WYE-125132 (WYE-132)], in the data set on NAGS (primary human hepatocytes, RNA-seq (Table 6)), the “Fold change (Log 2) vs untreated, NAGS expression” value came out at 0.64 Log 2. Also, on mTOR, the IC50 was 190 pM.
As for GZD824 Dimesylate, the figures for the IC50 in the data set on Bcr-Abl (wildtype) and in the data set on Bcr-Abl (T315I) were 340 pM and 680 pM, respectively.
Take IGF-1: Insulin-like growth factor I: in the data set on CPS1, the “CPS1 expression, Fold change (Log 2) vs untreated” value is listed as 2.22 Log 2. In addition, the “OTC expression, Fold change (Log 2) vs untreated” value with OTC [1] is listed as 0.76 Log 2. The “Fold change (Log 2) vs untreated, ARG1 expression” value with ARG1 was found to be 1.89 Log 2. Also, in the data set on SLC25A15, the “Fold change (Log 2) vs untreated, SLC25A15 expression” value is 0.8 Log 2. Also, in the data set with urea cycle genes, the “number of urea cycle genes whose expression was significantly up-regulated” value is recorded as “four”. In the data set with urea cycle genes (urea cycle-related genes significantly increased (Table 10)), the “Up-regulated Genes” value is “CPS1, OTC, ARG1, SLC25A15”. Moreover, the “Max fold change in OTC” value in the data set with OTC [2] was 1.69 fold.
As for “IRF1 (DNA GAAAGTGAAAGT; siRNA; chemistry not given here; the letters are possibly those of the target site)”, in the data set with OTC [2], the “Max fold change in OTC” value turned out to be 1.70 fold.
Still for that read-out and setting: in the case of “SMAD3 (DNA YGTCTAGACA; siRNA; chemistry not given here; the letters are possibly those of the target site)” it was 2.49 fold.

B1: IFN-γ: interferon (IFN)-γ, a known JAK1 activator (protein, UniProt P01579 24-161, looked up)
Interferon gamma: QDPYVKEAENLKKYFNAGHSDVADNGTLFLGILKNWKEESDRKIMQSQIVSFYFKLFKNFKDDQSIQKSVETIKEDMNVKFFNSNKKKRDDFEKLTNYSVTDLNVQRKAIHELIQVMAELSPAAKTGKRKRSQMLFRG
Consider B1, for which the “OTC gene expression after IFN-γ” value with OTC [3] is “dose-dependent decrease”; in the data set with OTC [3] (listed as IFNγ), “decreases”.
